Data from patent publication US9550772B2, “Azaindole derivatives as multi kinase inhibitors” (ORIBASE PHARMA, priority 2012, dated 2017).
Where two headings read alike, the source gives them in different places.

Assays:
BRAF = target: T1, BRAF (Homo sapiens, UniProt P15056); experiment: In vitro kinase assay (Z'-LYTE, Invitrogen); format: biochemical; details: compound at 100 nM, ATP Km apparent, read-out: % of inhibition of the kinase compared to the control
T1 construct: purchased Invitrogen
Experimental: (§1) The inhibitory activity of the compounds on 7 kinases (BRAF, EGFR (ErbB1), EGFR (ErbB1) T790M L858R, FGFR2, KDR (VEGFR2), PDGFRA (PDGFR alpha), SRC) was evaluated by Invitrogen using the Z′-LYTE® technology. Briefly, the Z′-LYTE® biochemical assay employs a fluorescence-based, coupled-enzyme format and is based on the differential sensitivity of phosphorylated and non-phosphorylated peptides to proteolytic cleavage. The peptide substrate is labeled with two fluorophores—one at each end—that make up a FRET pair. A ratiometric method, which calculates the ratio (the Emission Ratio) of donor emission to acceptor emission after excitation of the donor fluorophore at 400 nm, is used to quantitate reaction progress.
(§2) The compounds are screened in 1% DMSO (final) in the well. For 10 point titrations, 3-fold serial dilutions are conducted from the starting concentration. All Peptide/Kinase Mixtures are diluted to a 2× working concentration in the appropriate Kinase Buffer. All ATP Solutions are diluted to a 4× working concentration in Kinase Buffer (50 mM HEPES pH 7.5, 0.01% BRIJ-35, 10 mM MgCl2, 1 mM EGTA). ATP Km apparent is previously determined using a Z′-LYTE® assay.
(§3) Each compound was incubated at a concentration of 100 nM and the tables 21 to 27 summarize the results obtained showing the inhibitory power of a compound.

EGFR (ErbB1) = target: T2, EGFR (ErbB1) (Homo sapiens, UniProt P00533); experiment: In vitro kinase assay (Z'-LYTE, Invitrogen); format: biochemical; details: compound at 100 nM, ATP Km apparent, read-out: % of inhibition of the kinase compared to the control
T2 construct: purchased Invitrogen
Experimental: as §1, §2, §3

FGFR2 = target: T3, FGFR2 (Homo sapiens, UniProt P21802); experiment: In vitro kinase assay (Z'-LYTE, Invitrogen); format: biochemical; details: compound at 100 nM, ATP Km apparent, read-out: % of inhibition of the kinase compared to the control
T3 construct: purchased Invitrogen
Experimental: as §1, §2, §3

KDR (VEGFR2) = target: T4, KDR (VEGFR2) (Homo sapiens, UniProt P35968); experiment: In vitro kinase assay (Z'-LYTE, Invitrogen); format: biochemical; details: compound at 100 nM, ATP Km apparent, read-out: % of inhibition of the kinase compared to the control
T4 construct: purchased Invitrogen
Experimental: as §1, §2, §3

PDGFRA (PDGFR alpha) = target: T5, PDGFRA (PDGFR alpha) (Homo sapiens, UniProt P16234); experiment: In vitro kinase assay (Z'-LYTE, Invitrogen); format: biochemical; details: compound at 100 nM, ATP Km apparent, read-out: % of inhibition of the kinase compared to the control
T5 construct: purchased Invitrogen
Experimental: as §1, §2, §3

SRC = target: T6, SRC (Homo sapiens, UniProt P12931); experiment: In vitro kinase assay (Z'-LYTE, Invitrogen); format: biochemical; details: compound at 100 nM, ATP Km apparent, read-out: % of inhibition of the kinase compared to the control
T6 construct: purchased Invitrogen
Experimental: as §1, §2, §3

HUVEC cells = experiment: In vitro cell proliferation assay (MTT); format: cell-based; details: Homo sapiens, 72 hr, read-out: EC50, anti-proliferative activity
Experimental: (§4) Cancer cell lines (5×10^3 cells per well) or HUVEC (1×10^4 cells per well) or HRMEC (1×10^4 cells per well) were distributed in 96-well plates and incubating in duplicate with escalating concentrations (10 nM to 3 μM) of compounds for 72 hr. Cell proliferation was measured using MTT (3[4,5-dimethylthiazol-2-yl]-2,5-diphenyltetrazolium bromide). The EC50 values were calculated from sigmoidal dose-response curves utilizing Prism 5.0 from Graph-Pad Software (GraphPad Software, La Jolla, Calif., USA), with values normalized to those of DMSO-treated control wells (0%) and 1% SDS control wells (100%).

HepG2 cell line = experiment: In vitro cell proliferation assay (MTT); format: cell-based; details: Homo sapiens, HepG2, 72 hr, read-out: EC50, anti-proliferative activity
Experimental: as §4

A549 cell line = experiment: In vitro cell proliferation assay (MTT); format: cell-based; details: Homo sapiens, A549, 72 h, read-out: EC50, anti-proliferative activity
Experimental: as §4

HeLa cell line = experiment: In vitro cell proliferation assay (MTT); format: cell-based; details: Homo sapiens, 72 hr, read-out: EC50, anti-proliferative activity
Experimental: as §4

MDA-MB-231 cell line = experiment: In vitro cell proliferation assay (MTT); format: cell-based; details: Homo sapiens, MDA-MB-231, 72 hr, read-out: EC50, anti-proliferative activity
Experimental: as §4

T4 sequence (P35968 20-1356): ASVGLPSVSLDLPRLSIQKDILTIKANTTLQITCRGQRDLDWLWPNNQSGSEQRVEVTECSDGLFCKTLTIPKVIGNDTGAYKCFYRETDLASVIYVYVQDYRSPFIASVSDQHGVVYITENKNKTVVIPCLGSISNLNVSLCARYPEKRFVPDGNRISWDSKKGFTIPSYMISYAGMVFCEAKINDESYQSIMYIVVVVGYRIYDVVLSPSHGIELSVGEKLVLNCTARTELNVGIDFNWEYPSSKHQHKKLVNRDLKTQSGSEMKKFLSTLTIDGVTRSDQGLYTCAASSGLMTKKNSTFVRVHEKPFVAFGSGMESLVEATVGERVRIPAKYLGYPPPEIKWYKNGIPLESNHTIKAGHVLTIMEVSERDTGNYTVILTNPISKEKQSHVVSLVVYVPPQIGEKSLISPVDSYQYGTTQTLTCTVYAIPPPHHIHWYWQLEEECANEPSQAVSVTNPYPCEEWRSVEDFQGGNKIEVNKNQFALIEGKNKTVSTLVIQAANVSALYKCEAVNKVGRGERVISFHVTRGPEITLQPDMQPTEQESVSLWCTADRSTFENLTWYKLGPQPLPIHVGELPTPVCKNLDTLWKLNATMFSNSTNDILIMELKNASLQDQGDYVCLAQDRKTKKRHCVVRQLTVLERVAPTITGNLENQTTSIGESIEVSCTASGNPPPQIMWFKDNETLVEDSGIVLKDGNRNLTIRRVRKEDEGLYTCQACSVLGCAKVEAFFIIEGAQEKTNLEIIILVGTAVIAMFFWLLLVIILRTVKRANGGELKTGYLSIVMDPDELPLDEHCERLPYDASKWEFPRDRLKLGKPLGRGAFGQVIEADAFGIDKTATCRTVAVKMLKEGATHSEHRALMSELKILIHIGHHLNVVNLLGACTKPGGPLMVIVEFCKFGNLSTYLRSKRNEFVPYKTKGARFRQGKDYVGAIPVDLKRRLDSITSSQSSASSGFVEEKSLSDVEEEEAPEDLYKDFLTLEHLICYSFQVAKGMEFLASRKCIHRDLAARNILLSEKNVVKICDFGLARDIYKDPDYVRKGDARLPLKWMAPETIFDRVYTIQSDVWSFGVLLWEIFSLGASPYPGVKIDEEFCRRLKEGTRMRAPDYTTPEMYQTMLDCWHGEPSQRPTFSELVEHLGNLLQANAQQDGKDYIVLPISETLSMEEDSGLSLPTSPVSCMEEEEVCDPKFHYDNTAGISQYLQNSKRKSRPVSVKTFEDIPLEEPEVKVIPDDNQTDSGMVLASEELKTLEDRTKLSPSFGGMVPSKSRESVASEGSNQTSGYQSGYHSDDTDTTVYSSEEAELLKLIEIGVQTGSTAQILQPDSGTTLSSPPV
T5 sequence (P16234 24-1089): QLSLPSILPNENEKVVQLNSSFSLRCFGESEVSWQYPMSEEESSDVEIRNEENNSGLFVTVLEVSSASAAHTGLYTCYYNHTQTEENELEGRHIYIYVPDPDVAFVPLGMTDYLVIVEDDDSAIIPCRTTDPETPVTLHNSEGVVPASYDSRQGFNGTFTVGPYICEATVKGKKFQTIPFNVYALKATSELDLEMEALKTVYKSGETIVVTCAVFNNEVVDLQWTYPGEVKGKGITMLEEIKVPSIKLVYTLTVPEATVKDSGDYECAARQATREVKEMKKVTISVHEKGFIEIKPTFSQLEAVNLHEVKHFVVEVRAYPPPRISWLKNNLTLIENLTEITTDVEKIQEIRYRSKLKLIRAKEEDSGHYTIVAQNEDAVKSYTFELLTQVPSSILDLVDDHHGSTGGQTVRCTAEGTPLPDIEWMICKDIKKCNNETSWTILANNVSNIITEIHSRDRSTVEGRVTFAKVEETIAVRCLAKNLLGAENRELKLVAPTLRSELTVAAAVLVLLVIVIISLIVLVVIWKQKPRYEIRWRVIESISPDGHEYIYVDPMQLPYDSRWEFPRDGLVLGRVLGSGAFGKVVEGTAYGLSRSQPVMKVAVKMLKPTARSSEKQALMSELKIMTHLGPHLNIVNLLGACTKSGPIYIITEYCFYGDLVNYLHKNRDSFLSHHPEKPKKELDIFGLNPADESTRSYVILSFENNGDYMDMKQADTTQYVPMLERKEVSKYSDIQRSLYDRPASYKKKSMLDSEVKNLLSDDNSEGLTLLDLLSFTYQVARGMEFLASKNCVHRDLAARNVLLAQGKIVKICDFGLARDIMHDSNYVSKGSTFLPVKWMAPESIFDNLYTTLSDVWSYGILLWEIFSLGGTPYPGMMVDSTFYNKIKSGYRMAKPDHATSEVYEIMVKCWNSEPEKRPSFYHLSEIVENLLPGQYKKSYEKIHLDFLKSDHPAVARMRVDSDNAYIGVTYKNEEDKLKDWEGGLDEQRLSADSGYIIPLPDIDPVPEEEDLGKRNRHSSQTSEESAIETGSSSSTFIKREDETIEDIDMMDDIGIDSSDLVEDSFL
T6 sequence (P12931 whole entry): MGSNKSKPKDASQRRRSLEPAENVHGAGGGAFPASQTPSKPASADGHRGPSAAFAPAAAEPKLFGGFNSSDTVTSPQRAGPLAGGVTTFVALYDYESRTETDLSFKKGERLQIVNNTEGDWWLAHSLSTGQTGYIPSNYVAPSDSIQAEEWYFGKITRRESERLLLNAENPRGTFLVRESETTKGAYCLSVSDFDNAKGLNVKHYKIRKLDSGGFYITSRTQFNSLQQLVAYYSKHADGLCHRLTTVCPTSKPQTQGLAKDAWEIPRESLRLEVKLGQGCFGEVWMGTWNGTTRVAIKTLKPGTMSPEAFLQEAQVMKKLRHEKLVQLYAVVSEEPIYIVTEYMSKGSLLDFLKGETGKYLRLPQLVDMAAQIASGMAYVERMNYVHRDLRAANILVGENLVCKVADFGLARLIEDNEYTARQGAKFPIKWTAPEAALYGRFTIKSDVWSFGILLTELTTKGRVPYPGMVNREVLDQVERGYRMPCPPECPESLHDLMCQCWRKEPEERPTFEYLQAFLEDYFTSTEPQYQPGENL
T3 sequence (P21802 22-821): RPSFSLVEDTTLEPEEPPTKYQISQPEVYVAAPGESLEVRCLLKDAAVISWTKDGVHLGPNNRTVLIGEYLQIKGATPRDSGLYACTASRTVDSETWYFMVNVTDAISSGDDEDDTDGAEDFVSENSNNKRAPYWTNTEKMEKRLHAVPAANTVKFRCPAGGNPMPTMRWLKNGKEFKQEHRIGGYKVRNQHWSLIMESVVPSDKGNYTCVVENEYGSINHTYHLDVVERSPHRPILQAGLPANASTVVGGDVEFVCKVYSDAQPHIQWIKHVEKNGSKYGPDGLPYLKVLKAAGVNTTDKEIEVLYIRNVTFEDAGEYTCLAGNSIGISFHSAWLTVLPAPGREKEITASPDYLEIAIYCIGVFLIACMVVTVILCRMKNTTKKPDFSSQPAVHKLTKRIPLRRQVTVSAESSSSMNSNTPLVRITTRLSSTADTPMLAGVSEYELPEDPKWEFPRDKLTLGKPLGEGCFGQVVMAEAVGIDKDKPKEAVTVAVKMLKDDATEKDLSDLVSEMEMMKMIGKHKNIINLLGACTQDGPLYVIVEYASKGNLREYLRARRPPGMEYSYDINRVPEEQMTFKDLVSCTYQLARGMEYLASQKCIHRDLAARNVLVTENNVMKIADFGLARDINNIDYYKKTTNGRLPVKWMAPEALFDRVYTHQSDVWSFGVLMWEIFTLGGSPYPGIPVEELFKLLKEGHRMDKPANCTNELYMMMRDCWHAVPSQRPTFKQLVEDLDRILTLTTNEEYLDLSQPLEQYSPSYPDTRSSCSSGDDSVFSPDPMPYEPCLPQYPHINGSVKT
T2 sequence (P00533 25-1210): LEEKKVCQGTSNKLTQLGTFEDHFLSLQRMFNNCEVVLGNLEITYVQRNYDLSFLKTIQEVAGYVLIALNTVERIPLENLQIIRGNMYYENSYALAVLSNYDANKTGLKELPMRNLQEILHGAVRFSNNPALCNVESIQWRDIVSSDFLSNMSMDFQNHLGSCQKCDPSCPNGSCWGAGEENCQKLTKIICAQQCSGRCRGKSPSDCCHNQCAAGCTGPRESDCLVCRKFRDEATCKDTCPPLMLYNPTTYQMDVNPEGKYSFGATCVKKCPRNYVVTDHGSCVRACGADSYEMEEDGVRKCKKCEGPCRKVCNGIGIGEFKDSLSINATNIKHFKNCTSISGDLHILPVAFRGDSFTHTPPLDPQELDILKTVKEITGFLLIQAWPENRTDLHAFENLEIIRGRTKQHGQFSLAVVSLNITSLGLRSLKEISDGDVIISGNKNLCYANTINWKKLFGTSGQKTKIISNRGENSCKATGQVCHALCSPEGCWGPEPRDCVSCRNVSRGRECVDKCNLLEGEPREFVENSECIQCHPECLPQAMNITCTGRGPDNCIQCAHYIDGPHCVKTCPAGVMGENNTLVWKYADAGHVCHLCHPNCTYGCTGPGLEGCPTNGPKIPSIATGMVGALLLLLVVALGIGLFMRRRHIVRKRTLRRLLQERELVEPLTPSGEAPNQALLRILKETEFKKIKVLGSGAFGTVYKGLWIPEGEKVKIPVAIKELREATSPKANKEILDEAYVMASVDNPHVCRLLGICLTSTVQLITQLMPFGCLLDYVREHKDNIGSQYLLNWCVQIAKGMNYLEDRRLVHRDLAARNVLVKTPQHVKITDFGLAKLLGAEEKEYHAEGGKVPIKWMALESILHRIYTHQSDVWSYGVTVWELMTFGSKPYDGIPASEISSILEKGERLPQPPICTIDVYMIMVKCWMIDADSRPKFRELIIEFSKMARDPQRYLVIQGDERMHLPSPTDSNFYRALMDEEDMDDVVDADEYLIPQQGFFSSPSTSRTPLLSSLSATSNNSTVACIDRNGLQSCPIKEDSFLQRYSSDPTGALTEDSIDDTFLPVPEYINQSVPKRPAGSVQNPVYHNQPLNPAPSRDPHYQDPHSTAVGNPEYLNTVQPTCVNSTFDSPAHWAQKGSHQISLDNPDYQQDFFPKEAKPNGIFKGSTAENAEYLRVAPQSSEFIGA

| Compound | inhibition at 0.1 µM (BRAF) [%] | inhibition at 0.1 µM (EGFR (ErbB1)) [%] | inhibition at 0.1 µM (FGFR2) [%] | inhibition at 0.1 µM (KDR (VEGFR2)) [%] | inhibition at 0.1 µM (PDGFRA (PDGFR alpha)) [%] | inhibition at 0.1 µM (SRC) [%] | EC50 (HUVEC cells; EC50 ≧ 1 μM) [µM] | EC50 (HepG2 cell line; EC50 ≧ 1 μM) [µM] | EC50 (HepG2 cell line; 100 nM < EC50 < 1 μM) [µM] | EC50 (A549 cell line; 100 nM < EC50 < 1 μM) [µM] | EC50 (HUVEC cells; EC50 ≦ 100 nM) [µM] | EC50 (HeLa cell line; EC50 ≦ 100 nM) [µM] | EC50 (MDA-MB-231 cell line; EC50 ≦ 100 nM) [µM] | EC50 (HUVEC cells; 100 nM < EC50 < 1 μM) [µM] | EC50 (A549 cell line; EC50 ≧ 1 μM) [µM] | EC50 (HeLa cell line; EC50 ≧ 1 μM) [µM] | EC50 (MDA-MB-231 cell line; EC50 ≧ 1 μM) [µM] |
| --- | --- | --- | --- | --- | --- | --- | --- | --- | --- | --- | --- | --- | --- | --- | --- | --- | --- |
| COC(=O)c1cc2cc(CCc3cc(NC(=O)Nc4cccc(C(F)(F)F)c4)ccc3C)cnc2[nH]1 [OR0918, 5-(2-{2-Methyl-5-[3-(3-trifluoromethyl-phenyl)-ureido]-phenyl}-ethyl)-1H-pyrrolo[2,3-b]pyridine-2-carboxylic acid methyl ester] | < 50 | < 50 | < 50 | < 50 | ≥ 50 | < 50 | ≥ 1 | ≥ 1 | – | – | – | – | – | – | – | – | – |
| COC(=O)c1cc2cc(CCc3cc(NC(=O)c4ccc(CN5CCN(C)CC5)c(F)c4)ccc3C)cnc2[nH]1 [OR0920, 5-(2-{5-[3-Fluoro-4-(4-methyl-piperazin-1-ylmethyl)-benzoylamino]-2-methyl-phenyl}-ethyl)-1H-pyrrolo[2,3-b]pyridine-2-carboxylic acid methyl ester] | ≥ 50 | ≥ 50 | ≥ 50 | ≥ 50 | – | – | ≥ 1 | – | 0.1 to 1 | – | – | – | – | – | – | – | – |
| COC(=O)c1cc2cc(CCc3cccc(NC(=O)c4ccc(CN5CCN(C)CC5)c(C(F)(F)F)c4)c3)cnc2[nH]1 [OR0921, 5-(2-{3-[4-(4-Methyl-piperazin-1-ylmethyl)-3-trifluoromethyl-benzoylamino]-phenyl}-ethyl)-1H-pyrrolo[2,3-b]pyridine-2-carboxylic acid methyl ester] | < 50 | ≥ 50 | ≥ 50 | ≥ 50 | – | – | – | – | 0.1 to 1 | 0.1 to 1 | ≤ 0.1 | ≤ 0.1 | ≤ 0.1 | – | – | – | – |
| COC(=O)c1cc2cc(CCc3cccc(NC(=O)c4ccc(CN5CCC(N(C)C)C5)c(C(F)(F)F)c4)c3)cnc2[nH]1 (stereo not shown) [OR0922, 5-(2-{5-[4-(3-Dimethylamino-pyrrolidin-1-ylmethyl)-3-trifluoromethyl-benzoylamino]-phenyl}-ethyl)-1H-pyrrolo[2,3-b]pyridine-2-carboxylic acid methyl ester] | < 50 | ≥ 50 | ≥ 50 | ≥ 50 | – | – | – | ≥ 1 | – | – | – | – | – | 0.1 to 1 | – | – | – |
| CC(=O)c1cc2cc(CCc3cc(NS(=O)(=O)c4cccc(C(F)(F)F)c4)ccc3C)cnc2[nH]1 [OR0967, N-{3-[2-(2-Acetyl-1H-pyrrolo[2,3-b]pyridin-5-yl)-ethyl]-4-methyl-phenyl}-3-trifluoromethyl-benzenesulfonamide] | < 50 | < 50 | < 50 | < 50 | < 50 | < 50 | ≥ 1 | ≥ 1 | – | – | – | – | – | – | – | – | – |
| COC(=O)c1cc2cc(CCc3cc(NC(=S)c4ccc(CN5CCN(C)CC5)cc4)ccc3C)cnc2[nH]1 [OR0969, 5-(2-{2-Methyl-5-[4-(4-methyl-piperazin-1-ylmethyl)-thiobenzoylamino]-phenyl}-ethyl)-1H-pyrrolo[2,3-b]pyridine-2-carboxylic acid methyl ester] | < 50 | ≥ 50 | ≥ 50 | ≥ 50 | – | – | ≥ 1 | ≥ 1 | – | – | – | – | – | – | – | – | – |
| COC(=O)c1cc2cc(CCc3cccc(NC(=O)c4cc[nH]c4)c3)cnc2[nH]1 [OR0976, 5-(2-{3-[(1H-Pyrrole-3-carbonyl)-amino]-phenyl}-ethyl)-1H-pyrrolo[2,3-b]pyridine-2-carboxylic acid methyl ester] | < 50 | < 50 | < 50 | < 50 | < 50 | < 50 | ≥ 1 | ≥ 1 | – | – | – | – | – | – | – | – | – |
| COC(=O)c1cc2cc(CCc3cccc(NC(=O)c4ccc5[nH]nnc5c4)c3)cnc2[nH]1 [OR0977, 5-(2-{3-[(1H-Benzotriazole-5-carbonyl)-amino]-phenyl}-ethyl)-1H-pyrrolo[2,3-b]pyridine-2-carboxylic acid methyl ester] | < 50 | < 50 | < 50 | < 50 | < 50 | < 50 | ≥ 1 | ≥ 1 | – | – | – | – | – | – | – | – | – |
| COC(=O)c1cc2cc(CCc3cccc(NC(=O)c4ccc5[nH]ccc5c4)c3)cnc2[nH]1 [OR0978, 5-(2-{3-[(1H-Indole-5-carbonyl)-amino]-phenyl}-ethyl)-1H-pyrrolo[2,3-b]pyridine-2-carboxylic acid methyl ester] | < 50 | < 50 | < 50 | ≥ 50 | ≥ 50 | < 50 | ≥ 1 | ≥ 1 | – | – | – | – | – | – | – | – | – |
| COC(=O)c1cc2cc(CCc3cccc(NC(=O)c4cncc(C(F)(F)F)c4)c3)cnc2[nH]1 [OR0981, 5-(2-{3-[(5-Trifluoromethyl-pyridine-3-carbonyl)-amino]-phenyl}-ethyl)-1H-pyrrolo[2,3-b]pyridine-2-carboxylic acid methyl ester] | ≥ 50 | < 50 | < 50 | ≥ 50 | ≥ 50 | ≥ 50 | ≥ 1 | ≥ 1 | – | – | – | – | – | – | – | – | – |
| COC(=O)c1cc2cc(C=Cc3cccc(C(=O)Nc4cccc(C(F)(F)F)c4)c3)cnc2[nH]1 [OR1046, 5-{2-[3-(3-Trifluoromethyl-phenylcarbamoyl)-phenyl]-vinyl}-1H-pyrrolo[2,3-b]pyridine-2-carboxylic acid methyl ester] | – | – | – | – | – | – | ≥ 1 | ≥ 1 | – | – | – | – | – | – | ≥ 1 | ≥ 1 | ≥ 1 |
| Cc1ccc(NC(=O)c2ccc(CN3CCN(C)CC3)c(C(F)(F)F)c2)cc1CCc1cnc2[nH]c(C(=O)O)cc2c1 [OR1054, 5-(2-{2-Methyl-5-[4-(4-methyl-piperazin-1-ylmethyl)-3-trifluoromethyl-benzoylamino]-phenyl}-ethyl)-1H-pyrrolo[2,3-b]pyridine-2-carboxylic acid] | < 50 | ≥ 50 | ≥ 50 | ≥ 50 | – | – | – | – | – | – | – | – | – | – | – | – | – |
| COC(=O)c1cc2cc(CCc3cc(NC(=O)c4ccccc4OC)ccc3Cl)cnc2[nH]1 [OR1064, 5-{2-[2-Chloro-5-(2-methoxy-benzoylamino)-phenyl]-ethyl}-1H-pyrrolo[2,3-b]pyridine-2-carboxylic acid methyl ester] | < 50 | < 50 | < 50 | < 50 | ≥ 50 | < 50 | – | – | – | – | – | – | – | – | – | – | – |
| CCN(CC)CCNC(=O)c1c(C)[nH]c(/C=C2\C(=O)Nc3ccc(F)cc32)c1C [Sunitinib, reference compound] | – | – | – | – | – | – | ≥ 1 | – | – | – | – | – | – | – | – | – | – |
